In patent US20180230097A1, “PROCESS FOR PREPARATION OF APREMILAST AND NOVEL POLYMORPHS THEREOF” (LUPIN LIMITED, priority 2015, published 2018):

Assays:
[1] = Polymorph stability under temperature/humidity storage (PXRD, FIG. 15 and 16); assay type: physicochemical; details: 25° C. to 40° C. temperature, 5% to 75% humidity (RH); FIG. 15 25° C./60% RH/2M, FIG. 16 40° C./75% RH/2M
Protocol: The term “stable” with respect polymorph or to a drug dosage form, refers to the chemical and physical integrity of the polymorph or dosage unit and, when appropriate, the ability of the dosage unit to maintain protection against microbiological contamination.
The Form M of apremilast is stable at different set of conditions such as 25° C. to 40° C. temperature, 5% to 75% humidity (RH) for durations as depicted in FIG. 15 and FIG. 16.
Using a PANalytical X'Pert powder diffraction meter, the x-ray powder diffraction pattern was measured at room temperature using a Cu Ka filled tube (45 kV 40 mA) as the x-ray source. Data collection was done in 2theta continuous scan mode in the range of 3.5° to 40°.

[2] = Solubility of Form M in various media; assay type: physicochemical; details: water, hydrochloric acid, acetate Buffer, and phosphate Buffer at different pH

stability of polymorph [1]: stable
solubility in various medium [2]: good solubility
SMILES: CCOc1cc(C(CS(C)(=O)=O)N2C(=O)c3cccc(NC(C)=O)c3C2=O)ccc1OC (centres unmarked) [Form M]
